What is called ED50 is the midpoint of the dose-response relation.

Where two headings read alike, the source gives them in different places.

The results in this text go back to US12473291B2 (priority 2019, dated 2025).

Assay [1] has as its system SD rats. Briefly: animal or person. The following applies: for ED50: SD rats (male, 220-300 g), injection via the tail vein, disappearance of righting reflex; for 2ED50 duration / 2ED50 recovery time / Quality of recovery: SD rats; for 2ED50 duration / 2ED50 recovery time: single tail vein injection at 2×ED50; for 2ED50 duration: time from disappearance to recovery of righting reflex; for 2ED50 recovery time: time from recovery of righting reflex to free crawling; for Quality of recovery: tail vein injection. The assay is classed as in vivo.

In assay [2] the test system is KM mice. Briefly: animal or person. The assay is classed as in vivo. The following applies: for ED50: KM mice (male, 18-22 g), injection via the tail vein, disappearance of righting reflex; for 2ED50 duration / 2ED50 recovery time / Quality of recovery: KM mice; for 2ED50 duration / 2ED50 recovery time: single tail vein injection at 2×ED50; for 2ED50 duration: time from disappearance to recovery of righting reflex; for 2ED50 recovery time: time from recovery of righting reflex to free crawling; for Quality of recovery: tail vein injection.

Where [3] appears, read: Rattus norvegicus, read-out: ED50.

As for `COC(=O)C1(OC(=O)CC[C@@H]2N=C(c3ccccn3)c3c(Cl)cc(OC(F)(F)F)cc3-n3c(C)cnc32)CC1.O=C(O)O` [Example 43], in assay [1], the ED50 amounted to 6.5 mg/kg, the “2ED50 duration” value worked out at 3.01 min, the 2ED50 recovery time is given as 2.41 min and the Quality of recovery result was “++ (“++” means 1-3 min)”. Also, in assay [2], the ED50 amounted to 29.5 mg/kg, the 2ED50 duration is listed as 6.01 min, the 2ED50 recovery time came out at 2.13 min and the Quality of recovery result is recorded as “++++ (“++++” means 5-10 min)”.
Consider `CCOC(=O)OC(C)OC(=O)CC[C@@H]1N=C(c2ccccn2)c2cc(Br)ccc2-n2c(C)cnc21` (stereo partly drawn) [Example 54], for which the ED50 in assay [1] (setting [3]) was found to be 6.4 mg/kg. Further, in assay [1], the “2ED50 duration” value was found to be 3.22 min, the 2ED50 recovery time is recorded as 2.52 min and the Quality of recovery result was “+++ (“+++” means 3-5 min)”. In assay [1] (rats, tail vein, in words), the “duration and recovery time compared with remimazolam” value is recorded as “significantly shorter”; the “effective dose compared with remimazolam” value is given as “significantly lower”. For the same molecule, in assay [2], the 2ED50 duration was found to be 8.52 min and the 2ED50 recovery time came to 1.56 min. In assay [2] (Mus musculus, read-out: ED50), the ED50 worked out at 25 mg/kg. In addition, in assay [2] (mice, tail vein, in words), the “duration and recovery time compared with remimazolam” value is reported as “significantly shorter”; the “effective dose compared with remimazolam” value is on record as “significantly lower”.
For `C/C=C/C1CC(OCOC(=O)COC(=O)CC[C@@H]2N=C(c3ccccn3)c3cc(Br)c(Cl)cc3-n3c(C)cnc32)C(Br)CC1C(F)(F)F` (stereo partly drawn) [Example 84, 2-(((2-Bromo-5-((E)-propan-1-en-1-yl)-4-(trifluoromethyl)cyclohexyl)oxy)methoxy)-2-oxoethyl-3-((4S)-8-bromo-9-chloro-1-methyl-6-(pyridine-2-yl)-4H-benzo[f]imidazo[1,2-a][1,4]diaza-4-yl)propionate], the ED50 in assay [1] (setting [3]) is 6.23 mg/kg. In assay [1], the “2ED50 duration” value stood at 2.18 min, the 2ED50 recovery time was 1.58 min and the Quality of recovery entry is given as “++ (“++” means 1-3 min)”. For the same molecule, in assay [2], the 2ED50 duration is given as 3.16 min, the 2ED50 recovery time was found to be 2.17 min and the Quality of recovery entry was “+++ (“+++” means 3-5 min)”. Besides, the ED50 in assay [2] (Mus musculus, read-out: ED50) came to 28.8 mg/kg.
As to `COC(=O)CC[C@@H]1N=C(c2ccccn2)c2cc(Br)ccc2-n2c(C)cnc21` [Remimazolam, reference compound], in assay [1], the median effective dose (ED50) is on record as 8.9 mg/kg, the “2ED50 duration” value stood at 7.58 min, the 2ED50 recovery time is reported as 6.46 min and the Quality of recovery result is on record as “+++++ (“+++++” means >10 min)”. Further, in assay [2], the ED50 was 40 mg/kg, the 2ED50 duration is given as 8.58 min, the 2ED50 recovery time was 5.49 min and the Quality of recovery entry is “+++++ (“+++++” means >10 mm)”.
In the case of `Cc1cnc2n1-c1cc(Br)c(Cl)cc1C(c1ccncc1)=N[C@H]2CCC(=O)OCOC(=O)OC(C)(C)C` [Example 33], in assay [1] (setting [3]), the median effective dose (ED50) worked out at 6.2 mg/kg. In addition, in assay [1], the “2ED50 duration” value amounted to 3.51 min, the 2ED50 recovery time came out at 2.38 min and the Quality of recovery entry is listed as “+++ (“+++” means 3-5 min)”. Moreover, in assay [2], the 2ED50 duration is on record as 3.21 min, the 2ED50 recovery time was 1.48 min and the Quality of recovery entry was “++ (“++” means 1-3 min)”. Besides, the ED50 in assay [2] (Mus musculus, read-out: ED50) was 21.2 mg/kg.
In the case of `CCOC(=O)C(C)OC(=O)CC[C@@H]1N=C(c2ccccn2)c2cc(C)c(OC)cc2-n2c(C)cnc21` (stereo partly drawn) [Example 81, 1-Ethoxy-1-oxopropane-2-yl3-((4S)-9-methoxy-1,8-dimethyl-6-(pyridine-2-yl)-4H-benzo[f]imidazo[1,2-a][1,4]diaza-4-ylpropionate malonate], the ED50 in assay [1] (setting [3]) turned out to be 6.2 mg/kg. Further, in assay [1], the “2ED50 duration” value worked out at 2.43 min, the 2ED50 recovery time worked out at 2.09 min and the Quality of recovery entry is on record as “+++ (“+++” means 3-5 min)”. Also, in assay [2], the 2ED50 duration is given as 3.49 min, the 2ED50 recovery time was 2.43 min and the Quality of recovery result was “+++ (“+++” means 3-5 min)”. Moreover, in assay [2] (Mus musculus, read-out: ED50), the ED50 is 31.1 mg/kg.
With `CCCOC(=O)OCOC(=O)CC[C@@H]1N=C(c2ccccn2)c2cc(Br)ccc2-n2c(C)cnc21` [Example 47], the ED50 in assay [1] (setting [3]) came to 6.2 mg/kg; in assay [2] (Mus musculus, read-out: ED50), 27 mg/kg. In addition, the “2ED50 duration” value in assay [1] worked out at 4.07 min; in assay [2], 3.90 min. The 2ED50 recovery time stood at 2.38 min in assay [1] and 2.42 min in assay [2]. Besides, the Quality of recovery result in assay [1] is “++ (“++” means 1-3 min)”; in assay [2] it was “++++ (“++++” means 5-10 min)”.
For the molecule `COC(=O)C(C)OC(=O)CC[C@@H]1N=C(c2ccccn2)c2cc(Br)c(Br)cc2-n2c(C)cnc21` (stereo partly drawn) [Example 22], the ED50 turned out to be 4.3 mg/kg in assay [1] (setting [3]) and 30.7 mg/kg in assay [2] (Mus musculus, read-out: ED50). The entries for the “2ED50 duration” value in assay [1] and in assay [2] were 3.28 min and 5.58 min, respectively. Moreover, the 2ED50 recovery time in assay [1] was found to be 2.46 min; in assay [2] it was 2.18 min. Also, the Quality of recovery entry in assay [1] and in assay [2] was “++ (“++” means 1-3 min)” throughout.
Turning to `CCOC(=O)COC(=O)CC[C@@H]1N=C(c2ccccn2)c2cc(Cl)ccc2-n2c(C)cnc21` [Example 38], in assay [1], the ED50 amounted to 6.5 mg/kg, the “2ED50 duration” value amounted to 4.05 min, the 2ED50 recovery time is 2.55 min and the Quality of recovery entry is on record as “++++ (“++++” means 5-10 min)”. In addition, in assay [2], the 50% effective dose (ED50) amounted to 25 mg/kg, the 2ED50 duration came to 3.25 min, the 2ED50 recovery time amounted to 1.25 min and the Quality of recovery result was “++ (“++” means 1-3 min)”.
Consider `COC(=O)OCOC(=O)CC[C@@H]1N=C(c2ccccn2)c2cc(Br)c(Br)cc2-n2c(C)cnc21` [Example 8], for which, in assay [1] (setting [3]), the ED50 came to 5.8 mg/kg. In addition, in assay [1], the “2ED50 duration” value is 5.05 min, the 2ED50 recovery time stood at 2.18 min and the Quality of recovery result was “++++ (“++++” means 5-10 min)”. Further, in assay [2], the 2ED50 duration is reported as 5.23 min, the 2ED50 recovery time is reported as 2.18 min and the Quality of recovery entry was “+++ (“+++” means 3-5 min)”. Also, in assay [2] (Mus musculus, read-out: ED50), the ED50 is 27.5 mg/kg.
As for `Cc1cnc2n1-c1cc(Br)c(Br)cc1C(c1ccccn1)=N[C@H]2CCC(=O)OCOC(=O)OC(C)C(C)C` (stereo partly drawn) [Example 13], the median effective dose (ED50) in assay [1] (setting [3]) amounted to 5.3 mg/kg; in assay [2] (Mus musculus, read-out: ED50), 27 mg/kg. Besides, the “2ED50 duration” value was 4.02 min in assay [1] and 5.22 min in assay [2]. Moreover, the 2ED50 recovery time in assay [1] turned out to be 2.45 min; in assay [2], 2.34 min. Moreover, the Quality of recovery entry in assay [1] and in assay [2] was “+++ (“+++” means 3-5 min)” each time.
Take `COC(=O)C(C)OC(=O)CC[C@@H]1N=C(c2ccccn2)c2cc(Br)ccc2-n2c(C)cnc21` (stereo partly drawn) [Example 60]: in assay [1] (setting [3]), the ED50 came to 3.5 mg/kg. In addition, in assay [1], the “2ED50 duration” value is on record as 2.12 min, the 2ED50 recovery time was 2.14 min and the Quality of recovery entry is “+++ (“+++” means 3-5 min)”. Further, in assay [2], the 2ED50 duration was determined as 2.46 min, the 2ED50 recovery time turned out to be 1.47 min and the Quality of recovery entry is given as “++ (“++” means 1-3 min)”. Besides, in assay [2] (Mus musculus, read-out: ED50), the ED50 was found to be 22.5 mg/kg.
`CCOC(=O)OCOC(=O)CC[C@@H]1N=C(c2ccccn2)c2cc(Br)ccc2-n2c(C)cnc21` [Example 35]: in assay [1] (setting [3]), the ED50 was 5.2 mg/kg. In assay [1], the “2ED50 duration” value is given as 3.20 min, the 2ED50 recovery time came out at 2.52 min and the Quality of recovery result is given as “++ (“++” means 1-3 min)”. In assay [2], the 2ED50 duration turned out to be 5.25 min, the 2ED50 recovery time is listed as 2.02 min and the Quality of recovery result is listed as “+++ (“+++” means 3-5 min)”. For the same molecule, in assay [2] (Mus musculus, read-out: ED50), the ED50 came out at 25.2 mg/kg.
On to `COC(=O)C(C)(C)OC(=O)CC[C@@H]1N=C(c2ccccn2)c2cc(Br)ccc2-n2c(C)cnc21` [Example 62, Methyl 2-((3-((4S)-8-bromo-1-methyl-6-(pyridine-2-yl)-4H-benzo[f]imidazo [1,2-a][1,4]diaza-4-yl)propionyl)oxy)-2-methylpropionate], for which, in assay [1] (setting [3]), the ED50 is 1.3 mg/kg. In assay [1], the “2ED50 duration” value is reported as 1.08 min, the 2ED50 recovery time stood at 2.14 min and the Quality of recovery result is reported as “+++ (“+++” means 3-5 min)”. Moreover, in assay [2], the 2ED50 duration is reported as 3.23 min, the 2ED50 recovery time was 1.27 min and the Quality of recovery entry is “+++ (“+++” means 3-5 min)”. Moreover, in assay [2] (Mus musculus, read-out: ED50), the ED50 was 13.5 mg/kg.
Take `CCC(CC)OC(=O)OCOC(=O)CC[C@@H]1N=C(c2ccccn2)c2cc(Br)c(Br)cc2-n2c(C)cnc21` [Example 12]: the ED50 in assay [1] (setting [3]) came to 5.7 mg/kg. In assay [1], the “2ED50 duration” value is reported as 5.24 min, the 2ED50 recovery time is 2.04 min and the Quality of recovery entry was “++ (“++” means 1-3 min)”. In addition, in assay [2], the 2ED50 duration is 5.32 min, the 2ED50 recovery time stood at 2.04 min and the Quality of recovery entry was “+++ (“+++” means 3-5 min)”. Besides, the ED50 in assay [2] (Mus musculus, read-out: ED50) was 31.3 mg/kg.
